Test results taken from patent US12686690B2, “Macrocyclic urea orexin receptor agonists” (Merck Sharp & Dohme LLC, priority 2020, dated 2026).

Biological target: T1, hOX2R (Homo sapiens, UniProt O43614)
T1 construct: expressed in transfected cells; host or cells: CHO cells (G418 selection)
T1 sequence (O43614 1-444): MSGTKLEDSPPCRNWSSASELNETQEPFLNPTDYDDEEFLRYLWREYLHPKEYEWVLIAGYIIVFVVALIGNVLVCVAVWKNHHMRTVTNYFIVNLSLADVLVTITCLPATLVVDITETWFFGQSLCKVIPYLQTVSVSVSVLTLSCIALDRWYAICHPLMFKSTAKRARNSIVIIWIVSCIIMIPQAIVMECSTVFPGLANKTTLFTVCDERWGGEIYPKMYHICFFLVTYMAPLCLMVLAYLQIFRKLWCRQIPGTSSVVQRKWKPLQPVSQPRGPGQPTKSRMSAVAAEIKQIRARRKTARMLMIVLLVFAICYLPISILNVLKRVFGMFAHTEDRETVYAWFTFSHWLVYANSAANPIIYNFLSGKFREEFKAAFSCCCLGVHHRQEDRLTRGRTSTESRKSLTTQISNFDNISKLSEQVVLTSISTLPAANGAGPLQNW
Assay: hOX2R IPone assay (orexin receptor agonism)
Format: cell-based
Conditions: IPone readout; for hOX2R_Ipone max %act: maximal activation; for EC50: orexin receptor agonist, read-out: hOX2R_IPone EC50

hOX2R_Ipone max %act [%] | EC50 [nM] | SMILES
104.8 | 5.9 | CCN1C(=O)N[C@@H](CCC(F)(F)F)CCCCCOc2nc(cc3cccnc23)-c2cc(ncc2OC)[C@H]1C [Example 162, (3R,7R)-4-ethyl-25-methoxy-3-methyl-7-(3,3,3-trifluoropropyl)-13-oxa-4,6-diaza-1(6,8)-naphthyridina-2(4,2)-pyridinacyclotridecaphan-5-one]
99.9 | 88.8 | CCN1C(=O)NC(CCC(F)(F)F)CC(C)CCOc2nc(cn3ccnc23)-c2cccc(c2)[C@H]1C (single isomer, unassigned) [Example 48B]
100.1 | 2.62 | CCN1C(=O)N[C@@H](CCC(F)(F)F)CCOCCOc2nc(cn3ncnc23)-c2cc(ncc2OC)[C@H]1C [Example 164, (3R,7S,E)-4-ethyl-25-methoxy-3-methyl-7-(3,3,3-trifluoropropyl)-10,13-dioxa-4,6-diaza-1(6,8)-[1,2,4]triazolo[1,5-a]pyrazina-2(4,2)-pyridinacyclotridecaphan-5-one]
60.9 | 4910 | CCN1C(=O)N[C@@H](CCC(F)(F)F)CCCCCOc2nc(cn3ccnc23)C2=NC=C(O2)C1C (single isomer, unassigned) [Example 104A]
99.83 | 1.13 | CCN1C(=O)N[C@@H](CCC(F)(F)F)CCCCCOc2nc(cn3ccnc23)C2=C(C3CC3)N=C(O2)[C@H]1C [Example 211, (9R,13R,E)-14-Cyclopropyl-12-ethyl-13-methyl-9-(3,3,3-trifluoropropyl)-3-oxa-10,12-diaza-1(5,2)-oxazola-2(6,8)-imidazo[1,2-a]pyrazinacyclotridecaphan-11-one]
100.6 | 1.8 | CCN1C(=O)N[C@@H](CCC(F)(F)F)CCCCCOc2nc(cn3ccnc23)-c2nc(ncc2C)[C@H]1C [Example 93B, (12R,16R)-13-ethyl-8,12-dimethyl-16-(3,3,3-trifluoro-propyl)-12,13,16,17, 18,19,20,21-octa-hydro-6,23:11,7-di(azeno)imidazo[2,1-c][1,4,10,13,15]oxatet-raazacyclohenicosin-14(15H)-one]
103.3 | 5.1 | CCN1C(=O)NC(C(C)(C)C)CCCCCOc2nc(cn3ccnc23)-c2cc(ncc2OC)[C@H]1C (single isomer, unassigned) [Example 63B]
100.4 | 3.4 | CCN1C(=O)N[C@@H](CCC(F)(F)F)CCCCCOc2nc(cn3c(C)cnc23)-c2cc(nc3ccoc23)C1C (single isomer, unassigned) [Example 76B]
61.5 | 814 | CCN1C(=O)NCCc2nc(no2)COc2nc(cn3ccnc23)-c2cccc(c2)[C@H]1C [Example 24, (R,27E,54Z)-10-ethyl-11-methyl-3-oxa-8,10-diaza-5(3,5)-oxadiazola-2(6,8)-imidazo[1,2-a]pyrazina-1(1,3)-benzenacyclo-undecaphan-9-one]
106.5 | 4.17 | CCN1C(=O)N[C@@H](c2nccnc2C)CCCCCOc2nc(cn3ccnc23)-c2cc(ncc2OC)[C@H]1C [Example 152, (3R,7R,E)-4-ethyl-25-methoxy-3-methyl-7-(3-methylpyrazin-2-yl)-13-oxa-4,6-diaza-1(6,8)-imidazo[1,2-a]pyrazina-2(4,2)-pyridinacyclotridecaphan-5-one]
101 | 2.8 | CCN1C(=O)N[C@@H](CCC(F)(F)F)CCCCOc2nc(cn3ccnc23)-c2cccc(c2)[C@H]1C [Example 32, (3R,7R,E)-4-ethyl-3-methyl-7-(3,3,3-trifluoropropyl)-12-oxa-4,6-diaza-1(6,8)-imidazo[1,2-a]pyrazina-2(1,3)-benzenacyclododecaphan-5-one]
101.7 | 32 | CCN1C(=O)NC(CCOC)CCCCCOc2nc(cn3ccnc23)-c2cc(ncc2OC)[C@H]1C (single isomer, unassigned) [Example 56A]
99.1 | 1.5 | CCN1C(=O)N[C@@H](CCC(C)(F)F)CCCCCOc2nc(cn3ccnc23)-c2ccnc(c2)[C@H]1C [Example 84, (12R,16R)-16-(3,3-difluorobutyl)-13-ethyl-12-methyl-12, 13,16,17,18,19,20,21-octahydro-6,23-(azeno)-11,7-(metheno)imidazo[2,1-c][1,4,10,13,15] oxatetraazacycloheni-cosin-14(15H)-one]
99.26 | 71.2 | CCN1C(=O)NC(C#N)CCCCCOc2nc(cn3ccnc23)-c2cc(ncc2OC)[C@H]1C (single isomer, unassigned) [Example 224]
100 | 11.4 | CCN1C(=O)NC(CC23CC(C2)C3)CCCCCOc2nc(nn3ccnc23)-c2cc(ncc2OC)[C@H]1C (stereo partly drawn) [Example 203, (3R,E)-7-(bicyclo[1.1.1]pentan-1-ylmethyl)-4-ethyl-25-methoxy-3-methyl-13-oxa-4,6-diaza-1(2,4)-imidazo[2,1-f][1,2,4]triazina-2(4,2)-pyridinacyclotridecaphan-5-one]
99.5 | 42.9 | CCN1C(=O)N[C@@H](CCC(F)(F)F)CCCCOc2nc(cn3ccnc23)-c2ccnc(c2)[C@@H]1C [Example 29A, (12S,16R)-13-ethyl-12-methyl-16-(3,3,3-tri-fluoropropyl)-12,13,15,16,17, 18,19,20-octahydro-14H-6,22-(azeno)-11,7-(metheno) imidazo[2,1-c][1,4,10,13,15] oxatetraazacyclo-icosin-14-one]
100.2 | 67.8 | CCN1C(=O)N[C@@H](CCC(F)(F)F)CCCCCOc2nc(cc3ccnn23)-c2cc(ncc2OC)C1C (single isomer, unassigned) [Example 88A]
100.2 | 1.49 | CCN1C(=O)N[C@@H](CCC(C)(F)F)CCOCCOc2nc(cn3ncnc23)-c2cc(ncc2C)[C@H]1C [Example 129, (3R,7S,E)-7-(3,3-difluorobutyl)-4-ethyl-25,3-dimethyl-10,13-dioxa-4,6-diaza-1(6,8)-[1,2,4]triazolo[1,5-a]pyrazina-2(4,2)-pyridinacyclotridecaphan-5-one]
100.8 | 14.7 | CCN1C(=O)N[C@@H](CCC(C)(F)F)CCCCCOc2nc(cn3ncnc23)-c2cc(cnc2C)[C@H]1C [Example 146, (3R,7R,E)-7-(3,3-difluorobutyl)-4-ethyl-22,3-dimethyl-13-oxa-4,6-diaza-1(6,8)-[1,2,4]triazolo[1,5-a]pyrazina-2(3,5)-pyridinacyclotridecaphan-5-one]
99.1 | 16.5 | CCN1C(=O)NC(CC2(C(F)F)CC2)CCCCCOc2nc(cn3ccnc23)-c2cc(ncc2OC)[C@H]1C (single isomer, unassigned) [Example 70A]
99.5 | 4.9 | CCC1CCCCCOc2nc(cn3ccnc23)-c2cc(ncc2OC)[C@@H](C)N(CC)C(=O)N1 (single isomer, unassigned) [Example 52B]
100.9 | 0.46 | CCN1C(=O)NC(C2CC2(F)F)CCCCCOc2nc(cn3ccnc23)-c2cc(ncc2OC)[C@H]1C (stereo partly drawn) [Example 192, (3R,E)-7-(2,2-difluorocyclopropyl)-4-ethyl-25-methoxy-3-methyl-13-oxa-4,6-diaza-1(6,8)-imidazo[1,2-a]pyrazina-2(4,2)-pyridinacyclotri-decaphan-5-one]
102.1 | 4.75 | CCN1C(=O)NC(C(O)CC(F)(F)F)CCCCCOc2nc(cn3ncnc23)-c2cc(ncc2OC)C1C (single isomer, unassigned) [Example 133]
101.6 | 1.2 | CCN1C(=O)NC(C2CC2)CCCCCOc2nc(cn3ccnc23)-c2cc(ncc2OC)[C@H]1C (single isomer, unassigned) [Example 57B]
92.5 | 1050 | CCN1C(=O)NCCC2CCC(C2)Oc2nc(cn3ccnc23)-c2cccc(c2)[C@H]1C (single isomer, unassigned) [Example 1A]
107.9 | 1.45 | CCN1C(=O)N[C@@H](CCC(C)(F)F)CCOCCOc2nc(cc3c(C)cnn23)-c2cc(ncc2OC)[C@H]1C [Example 171, (3R,7S,E)-7-(3,3-difluorobutyl)-4-ethyl-25-methoxy-3-methyl-9,13-dioxa-4,6-diaza-1(5,7)-pyrazolo[1,5-c]pyrimidina-2(4,2)-pyridinacyclotridecaphan-5-one]

SMILES | hOX2R_Ipone max %act [%] | EC50 [nM]
CCN1C(=O)NCCN2CCCC(C2)Oc2nc(cn3ccnc23)-c2cccc(c2)[C@H]1C (mixture of isomers) [Example 5, (7R)-8-ethyl-7-methyl-18-oxa-8,10,13,21,24,26-hexaazapentacyclo[17.6.1.1~ 2,6~.1~13,17~.0~20,24~] octacosa-1(25),2(28),3,5,19(26),20,22-heptaen-9-one (non-preferred name)] | 93.82 | 1380
CCN1C(=O)NC(c2ccon2)CCCCCOc2nc(cn3ccnc23)-c2cccc(c2)[C@H]1C (mixture of isomers) [Example 20, (12R)-13-ethyl-12-methyl-16-(1,2-oxazol-3-yl)-12,13,16,17,18,19, 20,21-octahydro-6,23-(azeno)-11,7-(metheno) imidazo[2,1-c][1,4,13,15]oxa-triazacyclohenicosin-14(15H)-one] | 98.31 | 9.5
